Laboratory results: patent US9409876B2, “Bradykinin receptor antagonists and pharmaceutical compositions containing them” (DOMPE' FARMACEUTICI S.P.A., priority 2013, dated 2016)
Read-outs that look alike come from different tables or passages of the source.

Legend:
BKB1 receptors = target: T1, BKB1 receptors (Homo sapiens, UniProt P46663); experiment: Calcium Mobilization Assay (FLIPR), IMR-90 cells, BKB1; assay type: cell-based; conditions: IL-1 induced IMR-90 cells, agonist desArg10-kallidin (DAKD)
T1 construct: Human (IMR-90) lung fibroblast cells expressing native BKB1 receptors; endogenous in cells; host or cells: IMR-90 human lung fibroblasts, treated with human IL-1 to up-regulate BKB1
T1 sequence (P46663 1-353): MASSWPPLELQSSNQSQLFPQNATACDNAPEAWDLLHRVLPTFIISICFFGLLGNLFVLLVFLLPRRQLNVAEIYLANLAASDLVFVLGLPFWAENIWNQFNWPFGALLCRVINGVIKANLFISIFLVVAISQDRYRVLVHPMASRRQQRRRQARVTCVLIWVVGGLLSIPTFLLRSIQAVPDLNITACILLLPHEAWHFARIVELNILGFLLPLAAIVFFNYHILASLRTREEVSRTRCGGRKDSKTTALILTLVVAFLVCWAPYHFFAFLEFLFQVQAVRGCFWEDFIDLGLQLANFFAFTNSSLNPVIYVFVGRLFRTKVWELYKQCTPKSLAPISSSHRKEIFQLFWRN
Description: Calcium Mobilization Assay (FLIPR)—Human (IMR-90) lung fibroblast cells expressing native BKB1 receptors were harvested by trypsinization and seeded into black wall/clear bottom 96-well plates (Costar 3904; Corning Life Sciences, Acton, Mass.) at approximately 13,000 cells/well. After 1 day incubation, cells were treated with human IL-1 (0.35 ng/ml) in 10% FBS/MEM for 2 h to up-regulate BKB1 receptors. Induced cells were loaded with fluorescent calcium indicator by incubation with 2.3 µM Fluo-4/acetoxymethyl ester (Invitrogen) at 37° C. for 1.5 h in the presence of an anion transport inhibitor (2.5 mM probenecid in 1% FBS/MEM). Extracellular dye was removed by washing with assay buffer (2.5 mM probenecid, 0.1% BSA in 20 mM HEPES/HBSS without bicarbonate or phenol red, pH 7.5) and cell plates were kept in the dark until used. Test compounds were assayed at eight concentrations in triplicate.

[1] = Pharmacokinetics after oral gavage; assay type: in vivo, rat; conditions: for AUC(0-inf): read-out: AUCINF_obs (converted); for half-life: read-out: T½
Description: In three of the rats tested in Example 56, indicated as R1, […], also the pharmacokinetic profile of compound 8 (R,R) was evaluated. The results are summarised in Tables III to IV and in FIGS. 1-4.
FIGS. 1 and 2 show the plasma concentrations, expressed in ng/ml, of compound 8 (R,R) over time after oral administration for each of the three subjects tested (FIG. 1) and as an average (FIG. 2).
In tables III and V, T1/2 means the half-time of the compound, Tmax means the time at which the concentration of the compound reaches the maximum level, Cmax means the maximal concentration, Tlast means the latest time-point at which the concentration of the compound can be measured, Clast means the concentration at the latest time-point at which the concentration of the compound can be measured, AUClast means the area under the curve at the latest time-point at which the concentration of the compound can be measured, AUCinf_obs means the area under the curve which is infinitely extrapolated and MRTlast means the mean residence time at the latest time-point at which the concentration of the compound can be measured.
In tables IV and VI, LLOQ means lower limit of quantification.

[2] = Sprague-Dawley (SD), rat, plasma, po, 10 mg/kg, oral administration, Average, read-out: plasma level
[3] = Sprague-Dawley (SD), rat, plasma, po, 10 mg/kg, oral administration, Rat2, read-out: plasma level
[4] = Sprague-Dawley (SD), rat, plasma, po, 10 mg/kg, oral administration, Rat3, read-out: plasma level
[5] = Sprague-Dawley, rat, plasma, po, 10 mg/kg, 10 mg/kg oral gavage, Average
[6] = Sprague-Dawley, rat, plasma, po, 10 mg/kg, 10 mg/kg oral gavage, Rat 1
[7] = Sprague-Dawley, rat, plasma, po, 10 mg/kg, 10 mg/kg oral gavage, Rat 2
[8] = Sprague-Dawley, rat, plasma, po, 10 mg/kg, 10 mg/kg oral gavage, Rat 3
[9] = Sprague-Dawley, rat, plasma, po, 10 mg/kg, oral administration, Average, read-out: plasma level
[10] = Sprague-Dawley, rat, plasma, po, 10 mg/kg, oral administration, Rat1, read-out: plasma level
[11] = Sprague-Dawley, rat, plasma, po, 10 mg/kg, oral administration, Rat2, read-out: plasma level
[12] = Sprague-Dawley, rat, plasma, po, 10 mg/kg, oral administration, Rat3, read-out: plasma level

COc1ccccc1CN(C(=O)CC(C)C)[C@@H](C(=O)NC[C@H]1CCCO1)c1ccc(C)cc1 [Compound 8 (R,R), 3-methyl-N-(2-methoxybenzyl)-N-{[(1R)-1-(4-methylphenyl)]-2-oxo-2-[(2R)-(tetrahydrofuran-2-ylmethyl)amino]ethyl}butanamide]
IC50 (BKB1 receptors): 0.134 µM
Clast ([1]; 10 mg/kg oral gavage, Average): 1.1 ng/mL
Tlast ([1]; 10 mg/kg oral gavage, Average): 200.0 min
Tlast ([1]; 10 mg/kg oral gavage, Rat 1): 240 min
Tlast ([1]; 10 mg/kg oral gavage, Rat 2): 240 min
Tlast ([1]; 10 mg/kg oral gavage, Rat 3): 120 min
bioavailability ([1]; SD (Sprague-Dawley), rat, plasma, 10 mg/kg, oral vs intravenous exposure): 0.16%
Cmax ([1]; SD (Sprague-Dawley), rat, plasma, po, 10 mg/kg, oral administration): ~3 ng/mL
concentration at 15 min [1, 2]: 2.6 ng/mL
concentration at 15 min [1, 3]: 3 ng/mL
concentration at 15 min [1, 4]: 2.3 ng/mL
concentration at 30 min [1, 2]: 2 ng/mL
concentration at 30 min ([1]; Sprague-Dawley (SD), rat, plasma, po, 10 mg/kg, oral administration, Rat1, read-out: plasma level): 1.8 ng/mL
concentration at 30 min [1, 3]: 2.4 ng/mL
concentration at 30 min [1, 4]: 1.7 ng/mL
concentration at 240 min ([1]; Sprague-Dawley, rat, plasma, oral, 10 mg/kg, 10 mg/kg oral gavage, Rat 1, read-out: Clast): 1.1 ng/mL
concentration at 240 min ([1]; Sprague-Dawley, rat, plasma, oral, 10 mg/kg, 10 mg/kg oral gavage, Rat 2, read-out: Clast): 1.1 ng/mL
concentration at 120 min ([1]; Sprague-Dawley, rat, plasma, oral, 10 mg/kg, 10 mg/kg oral gavage, Rat 3, read-out: Clast): 1 ng/mL
AUC(0-t) [1, 5]: 5.63 ng·h/mL
Cmax [1, 5]: 3.4 ng/mL
MRT last [1, 5]: 1.41 h
Tmax [1, 5]: 0.138 h
AUC(0-inf) [1, 5]: 10.8 ng·h/mL
half-life [1, 5]: 3.37 h
AUC(0-t) [1, 6]: 5.67 ng·h/mL
Cmax [1, 6]: 4 ng/mL
MRT last [1, 6]: 1.69 h
Tmax [1, 6]: 0.0833 h
AUC(0-inf) [1, 6]: 14.4 ng·h/mL
half-life [1, 6]: 5.75 h
AUC(0-t) [1, 7]: 8.62 ng·h/mL
Cmax [1, 7]: 3 ng/mL
MRT last [1, 7]: 1.73 h
Tmax [1, 7]: 0.25 h
AUC(0-inf) [1, 7]: 13.7 ng·h/mL
half-life [1, 7]: 3.19 h
AUC(0-t) [1, 8]: 2.59 ng·h/mL
Cmax [1, 8]: 3.3 ng/mL
MRT last [1, 8]: 0.795 h
Tmax [1, 8]: 0.0833 h
AUC(0-inf) [1, 8]: 4.28 ng·h/mL
half-life [1, 8]: 1.17 h
concentration at 5 min [1, 9]: 3.1 ng/mL
concentration at 5 min [1, 10]: 4 ng/mL
concentration at 5 min [1, 11]: 2.2 ng/mL
concentration at 5 min [1, 12]: 3.3 ng/mL
concentration at 15 min [1, 10]: 2.7 ng/mL
concentration at 60 min [1, 9]: 1.4 ng/mL
concentration at 60 min [1, 10]: 1.3 ng/mL
concentration at 60 min [1, 11]: 2.1 ng/mL
concentration at 60 min [1, 12]: 0.8 ng/mL
concentration at 120 min ([1]; Sprague-Dawley, rat, plasma, po, 10 mg/kg, oral administration, 120 min, Average, read-out: plasma level): 1.7 ng/mL
concentration at 120 min ([1]; Sprague-Dawley, rat, plasma, po, 10 mg/kg, oral administration, 120 min, Rat1, read-out: plasma level): 1.3 ng/mL
concentration at 120 min ([1]; Sprague-Dawley, rat, plasma, po, 10 mg/kg, oral administration, 120 min, Rat2, read-out: plasma level): 2.8 ng/mL
concentration at 120 min ([1]; Sprague-Dawley, rat, plasma, po, 10 mg/kg, oral administration, 120 min, Rat3, read-out: plasma level): 1 ng/mL
concentration at 240 min ([1]; Sprague-Dawley, rat, plasma, po, 10 mg/kg, oral administration, 240 min, Average, read-out: plasma level): 1.1 ng/mL
concentration at 240 min ([1]; Sprague-Dawley, rat, plasma, po, 10 mg/kg, oral administration, 240 min, Rat1, read-out: plasma level): 1.1 ng/mL
concentration at 240 min ([1]; Sprague-Dawley, rat, plasma, po, 10 mg/kg, oral administration, 240 min, Rat2, read-out: plasma level): 1.1 ng/mL
absorption after oral administration ([1]; compared to the intravenous exposure): very poor absorption
plasma level ([1]; oral administration, 240 min, Rat3): <LLOQ
plasma level ([1]; oral administration, 480 min, Average): <LLOQ
plasma level ([1]; oral administration, 480 min, Rat1): <LLOQ
plasma level ([1]; oral administration, 480 min, Rat2): <LLOQ
plasma level ([1]; oral administration, 480 min, Rat3): <LLOQ
